In test [1] the test system is excised human nerve tissue (or nerve extracts). The test can be described thus: Phage display library screening (Example 2), NEB tissue-binding peptides: nerve tissue and nerve extracts versus muscle. As to conditions: unique sequence count, peptides not binding muscle extracts; for Count Excised Nerve: tissue target: excised nerve; for Count Nerve Extract: tissue target: nerve extract; for Count Neuron: tissue target: neuron. How it is done:
Phage display library screens were used to identify peptides that bind to target proteins (including specific laminin trimers) that are expressed in human nerves, as described in Table 3. These screens were also carried out to identify peptides that could bind selectively to nerves versus muscle. Such peptides could therefore be useful for systemic in-vivo labeling of nerves during fluorescence assisted surgery. Specifically, m 13 phage libraries expressing 7 or 12 random amino acid peptides, or a cyclic peptide CX7C, on the N-terminus of the minor coat protein pIII (New England Biolabs; NEB) were processed through multiple rounds of selection for binding to target proteins expressed in nerves, or to excised human nerves, nerve extracts, or muscle, as described further below.
To identify peptides selective for nerves versus muscle, phage from the same libraries used for specific target proteins were used to screen against excised human nerve tissue (or nerve extracts) and human muscle tissue.
Excised Nerve Tissue: Phage were processed through multiple cycles of selection, with representative phage being isolated and sequenced after each selection cycle. Specifically, for selection using human nerve tissue, a sample of […] tissue (2 mm by 2 mm) was washed prior to mixing and incubation with a phage library. After incubation, the mixture (containing mostly intact nerves with phage particles that had variable affinity for nerves) was centrifuged and the nerve pellet washed multiple times with PBS to remove phage with little or no affinity for nerve tissue. The pellet was homogenized and plated for titering and reamplification. Phage that were bound at each round were sequenced. NextGen sequencing of pools after 2, 3 and 4 rounds of selection were used to isolate candidate sequences that were further analyzed using bioinformatics.
Nerve Extracts: Phage libraries were incubated for up to 24 hours at 4° C. in 96 well plates that had been coated with a human nerve extract. Plates were then washed with PBS and phage were eluted using 0.2M glycine pH 2.0. Phage supernatants where then neutralized with Tris pH 9.0 prior to plating on TG1 bacteria and LB agar plates. Colonies were counted to determine titer followed by DNA preparation of pools of phage and NextGen sequencing. After rounds of selection, phage were pooled and amplified for iterative selection. Phage that eluted by 0.2M glycine pH 2.0 (the nerve binders) at each round were sequenced. NextGen sequencing of pools after 2, 3 and 4 rounds of selection were used to isolate candidate sequences that were further analyzed using bioinformatics.
Muscle Tissue: Phage were processed through multiple cycles of selection, with representative phage being isolated and sequenced after each selection cycle. Specifically, for selection using human skeletal muscle tissue, a sample of skeletal muscle tissue (2 mm by 2 mm) was washed prior to mixing and incubation with a phage library. After incubation, the mixture (containing mostly intact muscle with phage particles that had variable affinity for muscle) was centrifuged and the muscle pellet washed multiple times with PBS to remove phage with little or no affinity for muscle tissue. The pellet was then homogenized and plated for titering and reamplification. Phage that were bound at each round were sequenced. NextGen sequencing of pools after 2, 3 and 4 rounds of selection were used to isolate candidate sequences that were further analyzed using bioinformatics.
For all NEB sequence datasets, a python script was used to translate, trim, and filter the peptide sequences (see details above). A python script was used to group peptides from different assays according to tissue target (muscle, nerve, neuron, or nerve extract) and combine the unique sequence counts for each peptide. […]

In a further test the target is Laminin 421/521. The test can be described thus: phage display, NGS count.

Take WSGGMEDNSNRL: in test [1], the “Count Excised Nerve” value stood at 9, the “Count Nerve Extract” value came out at 18 and the “Count Neuron” value came out at 9.
For FDPLSRNVPHKT, in test [1], the “Count Excised Nerve” value turned out to be 16, the “Count Nerve Extract” value is listed as 22 and the “Count Neuron” value was 6.
In the case of EMVPMKFLMMAK, in test [1], the “Count Excised Nerve” value is 8, the “Count Nerve Extract” value is recorded as 14 and the “Count Neuron” value came to 6.
As to GTALNLQKDINK, in test [1], the “Count Excised Nerve” value worked out at 6, the “Count Nerve Extract” value turned out to be 12 and the “Count Neuron” value was found to be 6.
For LQTHSITYRHER, in test [1], the “Count Excised Nerve” value is 7, the “Count Nerve Extract” value stood at 19 and the “Count Neuron” value was found to be 12.
Turning to DRGLTILTDDLR, in test [1], the “Count Excised Nerve” value is given as 27, the “Count Nerve Extract” value turned out to be 34 and the “Count Neuron” value was 7.
As to AIMSYNSPWIQG, in test [1], the “Count Excised Nerve” value came out at 9, the “Count Nerve Extract” value was 17 and the “Count Neuron” value is on record as 8.
In the same order, the values of GLLREPDELMFL are 18, 27 and 9.
Take WPLKRFEQLPLK: in test [1], the “Count Excised Nerve” value was determined as 6, the “Count Nerve Extract” value was 14 and the “Count Neuron” value came out at 8.
With KTTSMTALTMGL, in test [1], the “Count Excised Nerve” value is on record as 9, the “Count Nerve Extract” value is listed as 21 and the “Count Neuron” value is on record as 12.
As to SDHTFKRVMFRW, in test [1], the “Count Excised Nerve” value is on record as 8, the “Count Nerve Extract” value turned out to be 15 and the “Count Neuron” value was 7.
RTVITNEMLLLV: in test [1], the “Count Excised Nerve” value is on record as 7, the “Count Nerve Extract” value was found to be 13 and the “Count Neuron” value is 6.
For QRATNDILIRGW the same measures were 9, 17 and 8.
For the molecule EESNAKLELLSR, in test [1], the “Count Excised Nerve” value is reported as 12, the “Count Nerve Extract” value turned out to be 26 and the “Count Neuron” value amounted to 14.
Consider GTVSYMVKMDNN, for which, in test [1], the “Count Excised Nerve” value amounted to 9, the “Count Nerve Extract” value is 16 and the “Count Neuron” value stood at 7.
Consider VRLPMLASMGHQ, for which, in test [1], the “Count Excised Nerve” value is 19, the “Count Nerve Extract” value worked out at 40 and the “Count Neuron” value is reported as 21.
On to VTDMLGIPKLHA, for which, in test [1], the “Count Excised Nerve” value is 18, the “Count Nerve Extract” value came out at 28 and the “Count Neuron” value is reported as 10.
Take VESGHAYSVSSW: in test [1], the “Count Excised Nerve” value stood at 14, the “Count Nerve Extract” value was found to be 20 and the “Count Neuron” value stood at 6.
For QANLYYWDPSDL the same measures were 8, 17 and 9.
Consider AFRFEFQVPDSH, for which, in test [1], the “Count Excised Nerve” value was 7, the “Count Nerve Extract” value is on record as 18 and the “Count Neuron” value is recorded as 11.
Consider MLRHVDLTEPNA, for which, in test [1], the “Count Excised Nerve” value was 7, the “Count Nerve Extract” value is listed as 13 and the “Count Neuron” value amounted to 6.
In the same order, the values of SLGSSFVQGGEL are 12, 19 and 7.
On to WVGPDIIAQMRI, for which, in test [1], the “Count Excised Nerve” value amounted to 8, the “Count Nerve Extract” value is listed as 16 and the “Count Neuron” value was 8.
For SSLYMNGWSRDQ, in test [1], the “Count Excised Nerve” value turned out to be 23, the “Count Nerve Extract” value is 49 and the “Count Neuron” value was found to be 26.
Take NYAVGDRITKNI: in test [1], the “Count Excised Nerve” value amounted to 18, the “Count Nerve Extract” value was determined as 25 and the “Count Neuron” value is listed as 7.
For the molecule NGMNWLQVHQLS, in test [1], the “Count Excised Nerve” value is 12, the “Count Nerve Extract” value is 18 and the “Count Neuron” value was 6.
Consider SLQLWNSEKVTT, for which, in test [1], the “Count Excised Nerve” value came out at 10, the “Count Nerve Extract” value is listed as 16 and the “Count Neuron” value worked out at 6.
In the same order, the values of EIIVMSGSNVTN are 9, 15 and 6.
For QSTLGVHMLRVS the same measures were 6, 13 and 7.
For EFARFRVFGVAE the same measures were 22, 30 and 8.
As to TSAHHDRTLAGS, in test [1], the “Count Excised Nerve” value worked out at 6, the “Count Nerve Extract” value was 12 and the “Count Neuron” value is reported as 6.
With GWQMFPPMQNTR, in test [1], the “Count Excised Nerve” value is given as 10, the “Count Nerve Extract” value was 50 and the “Count Neuron” value came to 40.
Take DVMQMFHQVHFY: in test [1], the “Count Excised Nerve” value is recorded as 10, the “Count Nerve Extract” value is 17 and the “Count Neuron” value is 7.
For VPVPKKMSLDPT the same measures were 8, 14 and 6.
Take SGEYNLIKPNLL: in test [1], the “Count Excised Nerve” value came out at 20, the “Count Nerve Extract” value is given as 27 and the “Count Neuron” value came out at 7.
In the same order, the values of DASQYPLVSGLW are 10, 16 and 6.
On to YANGIEAKDSSR, for which, in test [1], the “Count Excised Nerve” value is given as 14, the “Count Nerve Extract” value is 20 and the “Count Neuron” value is listed as 6.
For the molecule HSGAYTIQASYK, in test [1], the “Count Excised Nerve” value is recorded as 9, the “Count Nerve Extract” value was found to be 15 and the “Count Neuron” value is on record as 6.
As to NTEYSRYTSIWK, in test [1], the “Count Excised Nerve” value worked out at 8, the “Count Nerve Extract” value is 14 and the “Count Neuron” value is 6.
Consider WEKHTGPLSRYL, for which, in test [1], the “Count Excised Nerve” value came to 6, the “Count Nerve Extract” value is listed as 19 and the “Count Neuron” value worked out at 13.
On to GWNEATNSARHT, for which, in test [1], the “Count Excised Nerve” value was 26, the “Count Nerve Extract” value is given as 32 and the “Count Neuron” value came out at 6.
Take SEPIEKGSRTIV: in test [1], the “Count Excised Nerve” value worked out at 7, the “Count Nerve Extract” value stood at 13 and the “Count Neuron” value is 6.
In the case of GLTIMSSRHSLQ, in test [1], the “Count Excised Nerve” value amounted to 12, the “Count Nerve Extract” value amounted to 18 and the “Count Neuron” value was 6.
QNIVENFIDNER: in test [1], the “Count Excised Nerve” value worked out at 20, the “Count Nerve Extract” value was determined as 27 and the “Count Neuron” value is reported as 7.
For the molecule SGWHLVMSMSIG, in test [1], the “Count Excised Nerve” value came to 6, the “Count Nerve Extract” value was found to be 12 and the “Count Neuron” value is recorded as 6.
GWANSITYRNLY: in test [1], the “Count Excised Nerve” value amounted to 17, the “Count Nerve Extract” value was 26 and the “Count Neuron” value was 9.
For TDNGSFLGKLTS, in test [1], the “Count Excised Nerve” value came out at 7, the “Count Nerve Extract” value came out at 14 and the “Count Neuron” value came to 7.
Take MLKMERPGRMAY: in test [1], the “Count Excised Nerve” value is on record as 9, the “Count Nerve Extract” value was 15 and the “Count Neuron” value was found to be 6.
In the case of YSANSNPKKSLM, in test [1], the “Count Excised Nerve” value came out at 11, the “Count Nerve Extract” value came to 17 and the “Count Neuron” value worked out at 6.
In the test with Laminin 421/521, CLQKNHKFC yielded a Count of 27.
Take EAVSTQI: in the test with Laminin 421/521, the Count stood at 27.
CVLKCEDQKYRG yielded a Count with Laminin 421/521 of 27.
As for CKSPIKGTC, in the test with Laminin 421/521, the Count was determined as 27.
As to DRMYSTVPAEGL, the Count in the test with Laminin 421/521 was found to be 27.

(Values after patent US20240207421A1, “NERVE TARGETING PEPTIDES AND METHODS OF USE” (ALUME BIOSCIENCES, INC., priority 2020, published 2024).)
